# Literature values, collected in paper PMC10769797 (The Oncologist, 2023).
# Legend:
# POLR2A expression = conditions: cited from earlier work
# [1] = test system: patients with advanced solid tumors; conditions: phase I study; cited from earlier work
smiles,measurement,setting,value
CC1(C)CC[C@H](Nc2ncc(C(F)(F)F)c(-c3c[nH]c4c(P(C)(C)=O)c(C#N)ccc34)n2)CN1 [SY-5609],POLR2A expression change compared with baseline,POLR2A expression; CDK7-target occupancy up to 100%,4-5 fold
same,POLR2A expression change in PBMCs,POLR2A expression; at 75% CDK7-target occupancy,approximately 2.5 fold
same,DLTs,[1],"cytopenia, gastrointestinal toxicity, and hypotension"
same,Most frequent TEAEs,[1],"gastrointestinal toxicity, fatigue, thrombocytopenia, and anemia"
